According to patent publication US12448389B2, “BRM targeting compounds and associated methods of use” (Prelude Therapeutics Incorporated, priority 2020, dated 2025):

What was measured:
SMARCA2-HiBiT = target: T1, SMARCA2-HiBiT (Homo sapiens, UniProt P51531); assay: SMARCA2 HiBiT degradation assay in HeLa cells; assay type: cell-based; settings: 18 hours incubation; for DC50: read-out: HeLa_HiBit-SM2 DC50; for Dmax: HeLa, read-out: HeLa-HiBit-SM2 Dmax (%)
T1 construct: SMARCA2-HiBiT knock-in Hela monoclonal cell (CS302366); host or cells: HeLa monoclonal knock-in line (CRISPR HiBiT knock-in at the endogenous locus, heterozygous)
How it was run: (§1)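 HeLa monoclonal lines with heterozygous HiBiT knock-in were seeded at 2500 cells/well in EMEM with 10% FBS and treated with compound for 18 h at 37 °C. Remaining tagged protein was measured by Nano-Glo HiBiT lytic luminescence after 30–60 min at RT, and values came from curve fitting.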

SMARCA4-HiBiT = target: T2, SMARCA4-HiBiT (Homo sapiens, UniProt P51532); assay: SMARCA4 HiBiT degradation assay in HeLa cells; assay type: cell-based; settings: 18 hours incubation; for DC50: read-out: HeLa-HiBit-SM4 DC50; for Dmax: HeLa, read-out: HeLa-HiBit-SM4 Dmax (%)
T2 construct: SMARCA4-HiBiT knock-in Hela monoclonal cell (CS3023226); host or cells: HeLa monoclonal knock-in line (CRISPR HiBiT knock-in at the endogenous locus, heterozygous)
How it was run: as §1

T2 sequence (P51532 whole entry): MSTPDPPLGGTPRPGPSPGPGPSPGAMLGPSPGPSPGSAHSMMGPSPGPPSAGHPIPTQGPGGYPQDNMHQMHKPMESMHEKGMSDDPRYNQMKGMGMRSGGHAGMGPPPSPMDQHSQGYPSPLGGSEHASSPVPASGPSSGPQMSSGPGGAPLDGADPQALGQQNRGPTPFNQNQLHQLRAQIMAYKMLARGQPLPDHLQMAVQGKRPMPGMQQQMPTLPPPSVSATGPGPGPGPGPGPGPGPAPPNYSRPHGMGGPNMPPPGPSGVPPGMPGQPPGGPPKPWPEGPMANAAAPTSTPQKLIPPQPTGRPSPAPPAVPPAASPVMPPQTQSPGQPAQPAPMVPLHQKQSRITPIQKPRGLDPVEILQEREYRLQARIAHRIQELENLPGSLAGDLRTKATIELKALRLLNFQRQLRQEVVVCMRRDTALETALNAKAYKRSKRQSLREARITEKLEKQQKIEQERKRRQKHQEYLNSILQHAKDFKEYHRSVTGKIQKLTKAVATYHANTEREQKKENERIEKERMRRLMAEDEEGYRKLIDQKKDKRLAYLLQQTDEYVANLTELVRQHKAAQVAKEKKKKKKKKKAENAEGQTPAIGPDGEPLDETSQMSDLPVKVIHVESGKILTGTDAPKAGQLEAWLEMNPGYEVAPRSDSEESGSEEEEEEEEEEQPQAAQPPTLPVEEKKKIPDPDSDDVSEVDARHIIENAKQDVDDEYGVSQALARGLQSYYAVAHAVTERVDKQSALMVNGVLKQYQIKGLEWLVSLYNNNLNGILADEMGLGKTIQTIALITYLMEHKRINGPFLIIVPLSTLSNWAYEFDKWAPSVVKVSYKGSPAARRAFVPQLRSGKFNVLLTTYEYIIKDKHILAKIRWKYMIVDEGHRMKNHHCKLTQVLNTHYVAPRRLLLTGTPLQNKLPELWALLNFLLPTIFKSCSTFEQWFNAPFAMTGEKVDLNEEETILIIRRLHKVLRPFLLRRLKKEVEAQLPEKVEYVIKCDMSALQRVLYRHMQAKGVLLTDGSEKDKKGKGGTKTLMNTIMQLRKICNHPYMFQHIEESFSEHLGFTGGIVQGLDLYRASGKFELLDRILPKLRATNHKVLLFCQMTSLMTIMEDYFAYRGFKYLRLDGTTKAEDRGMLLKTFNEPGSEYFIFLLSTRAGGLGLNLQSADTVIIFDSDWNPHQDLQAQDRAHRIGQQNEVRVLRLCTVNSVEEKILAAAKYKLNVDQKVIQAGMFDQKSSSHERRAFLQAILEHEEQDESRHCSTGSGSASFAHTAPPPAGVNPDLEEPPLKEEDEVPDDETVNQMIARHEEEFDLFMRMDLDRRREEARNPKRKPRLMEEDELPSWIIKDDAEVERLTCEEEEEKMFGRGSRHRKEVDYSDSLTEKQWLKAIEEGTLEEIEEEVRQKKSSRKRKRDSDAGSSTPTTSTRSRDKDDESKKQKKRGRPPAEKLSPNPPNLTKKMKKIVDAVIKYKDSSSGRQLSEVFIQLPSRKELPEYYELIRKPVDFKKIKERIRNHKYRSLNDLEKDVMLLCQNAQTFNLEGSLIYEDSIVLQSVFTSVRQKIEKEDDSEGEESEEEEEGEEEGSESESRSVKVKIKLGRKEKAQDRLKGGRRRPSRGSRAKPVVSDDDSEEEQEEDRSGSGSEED
T1 sequence (P51531 whole entry): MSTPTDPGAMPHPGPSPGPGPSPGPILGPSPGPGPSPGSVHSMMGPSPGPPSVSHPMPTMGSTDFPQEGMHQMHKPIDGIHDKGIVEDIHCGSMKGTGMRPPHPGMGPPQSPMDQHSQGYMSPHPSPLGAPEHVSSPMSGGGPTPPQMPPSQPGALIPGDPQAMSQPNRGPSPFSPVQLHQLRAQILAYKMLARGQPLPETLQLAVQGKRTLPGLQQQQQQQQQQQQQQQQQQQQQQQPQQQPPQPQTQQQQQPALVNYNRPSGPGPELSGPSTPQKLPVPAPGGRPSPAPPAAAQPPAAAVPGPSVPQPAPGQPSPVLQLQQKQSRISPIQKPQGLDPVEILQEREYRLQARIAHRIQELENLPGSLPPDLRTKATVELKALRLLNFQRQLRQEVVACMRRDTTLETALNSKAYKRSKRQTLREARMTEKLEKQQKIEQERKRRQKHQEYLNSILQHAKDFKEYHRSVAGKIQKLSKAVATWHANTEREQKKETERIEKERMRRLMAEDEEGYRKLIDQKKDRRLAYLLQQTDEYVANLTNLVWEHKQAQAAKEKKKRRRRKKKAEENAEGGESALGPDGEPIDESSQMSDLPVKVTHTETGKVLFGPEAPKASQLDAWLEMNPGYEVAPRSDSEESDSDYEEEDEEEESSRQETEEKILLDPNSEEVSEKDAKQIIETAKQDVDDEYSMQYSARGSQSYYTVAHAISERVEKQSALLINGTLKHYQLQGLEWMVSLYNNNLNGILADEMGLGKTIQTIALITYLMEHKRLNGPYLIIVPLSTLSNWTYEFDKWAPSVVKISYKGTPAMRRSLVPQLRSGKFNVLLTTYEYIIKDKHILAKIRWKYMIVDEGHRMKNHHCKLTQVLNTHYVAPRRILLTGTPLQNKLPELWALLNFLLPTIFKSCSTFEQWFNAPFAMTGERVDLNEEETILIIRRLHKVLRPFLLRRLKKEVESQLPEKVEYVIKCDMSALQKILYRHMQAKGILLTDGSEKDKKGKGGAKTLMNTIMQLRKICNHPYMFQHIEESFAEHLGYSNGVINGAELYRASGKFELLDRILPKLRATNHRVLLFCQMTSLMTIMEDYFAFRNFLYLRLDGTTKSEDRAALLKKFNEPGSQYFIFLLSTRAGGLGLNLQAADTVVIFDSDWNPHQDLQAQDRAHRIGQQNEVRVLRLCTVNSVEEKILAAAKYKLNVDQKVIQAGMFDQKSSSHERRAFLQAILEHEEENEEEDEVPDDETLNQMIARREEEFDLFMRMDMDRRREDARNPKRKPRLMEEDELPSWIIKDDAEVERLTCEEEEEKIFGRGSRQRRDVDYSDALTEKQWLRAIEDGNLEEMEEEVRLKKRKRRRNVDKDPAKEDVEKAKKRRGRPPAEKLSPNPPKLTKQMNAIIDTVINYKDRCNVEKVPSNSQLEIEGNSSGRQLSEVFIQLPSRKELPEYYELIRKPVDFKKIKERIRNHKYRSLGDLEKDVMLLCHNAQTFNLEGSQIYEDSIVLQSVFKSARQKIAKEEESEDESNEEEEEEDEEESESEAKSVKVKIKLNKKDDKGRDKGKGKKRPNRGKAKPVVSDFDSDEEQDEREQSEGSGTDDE

For `O=C1CCC(N2C(=O)c3ccc(N4CCN(C(=O)OCCN5CCC(N6CCN7c8cc(-c9ccccc9O)nnc8NC[C@H]7C6)CC5)CC4)cc3C2=O)C(=O)N1` (stereo partly drawn) [Example 223, 2-(4-((S)-2-(2-hydroxyphenyl)-5,6,6a,7,9,10-hexahydro-8H-pyrazino[1′,2′:4,5]pyrazino[2,3-c]pyridazin-8-yl)piperidin-1-yl)ethyl 4-(2-(2,6-dioxopiperidin-3-yl)-1,3-dioxoisoindolin-5-yl)piperazine-1-carboxylate], the DC50 (SMARCA2-HiBiT) was under 10 nM, the Dmax (SMARCA2-HiBiT) was 75 to 85% and the DC50 (SMARCA4-HiBiT) was under 10 nM. For the same molecule, the Dmax (SMARCA4-HiBiT) was 75 to 85%.

Work on `CC1CN(CC2CCN(c3ccc4c(c3)C(=O)N(C3CCC(=O)NC3=O)C4)CC2)CCN1C(=O)N1CCN2c3cc(-c4ccccc4O)nnc3NC[C@H]2C1` (stereo partly drawn) [Example 104, 3-(6-(4-((4-((S)-2-(2-hydroxyphenyl)-6,6a,7,8,9,10-hexahydro-5H-pyrazino[1′,2′:4,5]pyrazino[2,3-c]pyridazine-8-carbonyl)-3-methylpiperazin-1-yl)methyl)piperidin-1-yl)-1-oxoisoindolin-2-yl)piperidine-2,6-dione] yielded a DC50 (SMARCA2-HiBiT) of under 10 nM, a Dmax (SMARCA2-HiBiT) of over 85% and a DC50 (SMARCA4-HiBiT) of under 10 nM. For the same molecule, the Dmax (SMARCA4-HiBiT) was 75 to 85%.

Molecule `CC1CN(CC2CN(c3ccc4c(c3)C(=O)N(C3CCC(=O)NC3=O)C4=O)C2)CC(C)N1C(=O)N1CCN2c3cc(-c4ccccc4O)nnc3NC[C@H]2C1` (stereo partly drawn) [Example 274, 2-(2,6-dioxopiperidin-3-yl)-5-(3-((4-((S)-2-(2-hydroxyphenyl)-6,6a,7,8,9,10-hexahydro-5H-pyrazino[1 ′,2′:4,5]pyrazino[2,3-c]pyridazine-8-carbonyl)-3,5-dimethylpiperazin-1-yl)methyl)azetidin-1-yl)isoindoline-1,3-dione] has a DC50 (SMARCA2-HiBiT) of under 10 nM, a Dmax (SMARCA2-HiBiT) of over 85% and a DC50 (SMARCA4-HiBiT) of under 10 nM. It also gave a Dmax (SMARCA4-HiBiT) of 50 to 75%.

In the case of `O=C1CCC(N2Cc3cc(OCCN4CCC(CN5CCN6c7cc(-c8ccccc8O)nnc7NC[C@H]6C5)CC4)ccc3C2=O)C(=O)N1` (stereo partly drawn) [Example 207, 3-(5-(2-(4-(((S)-2-(2-hydroxyphenyl)-5,6,6a,7,9,10-hexahydro-8H-pyrazino[1′,2′:4,5]pyrazino[2,3-c]pyridazin-8-yl)methyl)piperidin-1-yl)ethoxy)-1-oxoisoindolin-2-yl)piperidine-2,6-dione], the DC50 (SMARCA2-HiBiT) is reported as under 10 nM, the Dmax (SMARCA2-HiBiT) is reported as 50 to 75% and the DC50 (SMARCA4-HiBiT) is reported as 10 to 100 nM. It also gave a Dmax (SMARCA4-HiBiT) of at most 50%.

`O=C1CCC(N2C(=O)c3ccc(N4CCC(CN5CCC6(CN7CCN8c9cc(-c%10ccccc%10O)nnc9NC[C@H]8C7)CC6C5)CC4)cc3C2=O)C(=O)N1` (stereo partly drawn) [Example 171, 2-(2,6-dioxopiperidin-3-yl)-5-[4-[[6-[[(10S)-4-(2-hydroxyphenyl)-1,5,6,8,12-pentazatricyclo[8.4.0.02,7]tetradeca-2,4,6-trien-12-yl]methyl]-3-azabicyclo[4.1.0]heptan-3-yl]methyl]piperidin-1-yl]isoindole-1,3-dione] gave a DC50 (SMARCA2-HiBiT) of under 10 nM, a Dmax (SMARCA2-HiBiT) of over 85% and a DC50 (SMARCA4-HiBiT) of under 10 nM. The Dmax (SMARCA4-HiBiT) was over 85%.

`O=C1CCC(N2C(=O)c3ccc(N4CCC(CN5CC6CC(C5)C6CN5CCN6c7cc(-c8ccccc8O)nnc7NC[C@H]6C5)CC4)cc3C2=O)C(=O)N1` (stereo partly drawn) [Example 39, 2-(2,6-dioxopiperidin-3-yl)-5-(4-((6-(((S)-2-(2-hydroxyphenyl)-5,6,6a,7,9,10-hexahydro-8H-pyrazino[1′,2′:4,5]pyrazino[2,3-c]pyridazin-8-yl)methyl)-3-azabicyclo[3.1.1]heptan-3-yl)methyl)piperidin-1-yl)isoindoline-1,3-dione] gave a DC50 (SMARCA2-HiBiT) of under 10 nM, a Dmax (SMARCA2-HiBiT) of over 85% and a DC50 (SMARCA4-HiBiT) of under 10 nM. For the same molecule, the Dmax (SMARCA4-HiBiT) was 50 to 75%.

For `O=C1CCC(N2C(=O)c3ccc(N4CCC(N5C[C@@H]6[C@@H](CN7CCN8c9cc(-c%10ccccc%10O)nnc9NC[C@H]8C7)[C@@H]6C5)CC4)cc3C2=O)C(=O)N1` (stereo partly drawn) [Example 90, 2-(2,6-dioxopiperidin-3-yl)-5-(4-((1R,5S,6s)-6-(((S)-2-(2-hydroxyphenyl)-5,6,6a,7,9,10-hexahydro-8H-pyrazino[1′,2′:4,5]pyrazino[2,3-c]pyridazin-8-yl)methyl)-3-azabicyclo[3.1.0]hexan-3-yl)piperidin-1-yl)isoindoline-1,3-dione], the DC50 (SMARCA2-HiBiT) was under 10 nM, the Dmax (SMARCA2-HiBiT) was 50 to 75% and the DC50 (SMARCA4-HiBiT) was 10 to 100 nM. It also gave a Dmax (SMARCA4-HiBiT) of 50 to 75%.

`O=C1CCC(N2Cc3cc(N4CCO[C@H](CN5C[C@@H]6[C@H](C5)[C@H]6CN5CCN6c7cc(-c8ccccc8O)nnc7NC[C@H]6C5)C4)ccc3C2=O)C(=O)N1` (stereo partly drawn) [Example 268, 3-(5-((R)-2-(((1R,5S,6S)-6-(((S)-2-(2-hydroxyphenyl)-5,6,6a,7,9,10-hexahydro-8H-pyrazino[1′,2′:4,5]pyrazino[2,3-c]pyridazin-8-yl)methyl)-3-azabicyclo[3.1.0]hexan-3-yl)methyl)morpholino)-1-oxoisoindolin-2-yl)piperidine-2,6-dione] showed a DC50 (SMARCA2-HiBiT) of under 10 nM, a Dmax (SMARCA2-HiBiT) of 75 to 85% and a DC50 (SMARCA4-HiBiT) of under 10 nM. The Dmax (SMARCA4-HiBiT) was 50 to 75%.

Work on `O=C1CCC(N2Cc3ccc(N4CCN(CC5CCN(C(=O)N6CCN7c8cc(-c9ccccc9O)nnc8NC[C@H]7C6)CC5)CC4)cc3C2=O)C(=O)N1` (stereo partly drawn) [Example 146, 3-(6-(4-((1-((S)-2-(2-hydroxyphenyl)-6,6a,7,8,9,10-hexahydro-5H-pyrazino[1′,2′:4,5]pyrazino[2,3-c]pyridazine-8-carbonyl)piperidin-4-yl)methyl)piperazin-1-yl)-1-oxoisoindolin-2-yl) piperidine-2,6-dione] yielded a DC50 (SMARCA2-HiBiT) of under 10 nM, a Dmax (SMARCA2-HiBiT) of over 85% and a DC50 (SMARCA4-HiBiT) of under 10 nM. For the same molecule, the Dmax (SMARCA4-HiBiT) was over 85%.

`O=C1CCC(N2C(=O)c3ccc(N4CCC(CN5CCO[C@@H](CN6CCN7c8cc(-c9ccccc9O)nnc8NC[C@H]7C6)C5)CC4)cc3C2=O)C(=O)N1` (stereo partly shown) [Example 74] showed a DC50 (SMARCA2-HiBiT) of under 10 nM, a Dmax (SMARCA2-HiBiT) of over 85% and a DC50 (SMARCA4-HiBiT) of under 10 nM. The Dmax (SMARCA4-HiBiT) was over 85%.

`O=C1CCC(N2Cc3ccc(N4CCN(CCN5CCC(CN6CCN7c8cc(-c9ccccc9O)nnc8NC[C@H]7C6)CC5)CC4)cc3C2=O)C(=O)N1` (stereo partly drawn) [Example 119, 3-(6-(4-(2-(4-(((S)-2-(2-hydroxyphenyl)-5,6,6a,7,9,10-hexahydro-8H-pyrazino[1′,2′:4,5]pyrazino[2,3-c]pyridazin-8-yl)methyl)piperidin-1-yl)ethyl)piperazin-1-yl)-1-oxoisoindolin-2-yl)piperidine-2,6-dione] was tested, and the DC50 (SMARCA2-HiBiT) was under 10 nM, the Dmax (SMARCA2-HiBiT) was over 85% and the DC50 (SMARCA4-HiBiT) was under 10 nM. It also gave a Dmax (SMARCA4-HiBiT) of over 85%.

`O=C1CCC(N2Cc3ccc(C4CCN(CCN5CCC(CN6CCN7c8cc(-c9ccccc9O)nnc8NC[C@H]7C6)CC5)CC4)cc3C2=O)C(=O)N1` (stereo partly drawn) [Example 120, 3-(6-(1-(2-(4-(((S)-2-(2-hydroxyphenyl)-5,6,6a,7,9,10-hexahydro-8H-pyrazino[1′,2′:4,5]pyrazino[2,3-c]pyridazin-8-yl)methyl)piperidin-1-yl)ethyl)piperidin-4-yl)-1-oxoisoindolin-2-yl) piperidine-2,6-dione] gave a DC50 (SMARCA2-HiBiT) of under 10 nM, a Dmax (SMARCA2-HiBiT) of over 85% and a DC50 (SMARCA4-HiBiT) of 10 to 100 nM. The Dmax (SMARCA4-HiBiT) was over 85%.

In the case of `O=C1CCC(N2C(=O)c3ccc(N4CCC(CN5CCC(CN6CCN7c8cc(-c9ccccc9O)nnc8NC[C@H]7C6)C5)CC4)cc3C2=O)C(=O)N1` (stereo partly drawn) [Example 33, 2-(2,6-dioxopiperidin-3-yl)-5-(4-((3-(((S)-2-(2-hydroxyphenyl)-5,6,6a,7,9,10-hexahydro-8H-pyrazino[1′,2′:4,5]pyrazino[2,3-c]pyridazin-8-yl)methyl)pyrrolidin-1-yl)methyl)piperidin-1-yl)isoindoline-1,3-dione], the DC50 (SMARCA2-HiBiT) is reported as under 10 nM, the Dmax (SMARCA2-HiBiT) is reported as over 85% and the DC50 (SMARCA4-HiBiT) is reported as under 10 nM. The Dmax (SMARCA4-HiBiT) was 75 to 85%.

Work on `O=C1CCC(N2C(=O)c3ccc(N4CCC(CNC5CCN(C(=O)N6CCN7c8cc(-c9ccccc9O)nnc8NC[C@H]7C6)CC5)CC4)cc3C2=O)C(=O)N1` (stereo partly drawn) [Example 140, 2-(2,6-dioxopiperidin-3-yl)-5-(4-(((l-((S)-2-(2-hydroxyphenyl)-6,6a,7,8,9,10-hexahydro-5H-pyrazino[1′,2′:4,5]pyrazino[2,3-c]pyridazine-8-carbonyl)piperidin-4-yl)amino)methyl)piperidin-1-yl)isoindoline-1,3-dione] yielded a DC50 (SMARCA2-HiBiT) of under 10 nM, a Dmax (SMARCA2-HiBiT) of 75 to 85% and a DC50 (SMARCA4-HiBiT) of under 10 nM. For the same molecule, the Dmax (SMARCA4-HiBiT) was 75 to 85%.

For `O=C1CCC(N2Cc3ccc(N4CCOC(CN5CCN(C(=O)N6CCN7c8cc(-c9ccccc9O)nnc8NC[C@H]7C6)CC5)C4)cc3C2=O)C(=O)N1` (stereo partly drawn) [Example 111, 3-(6-(2-((4-((S)-2-(2-hydroxyphenyl)-6,6a,7,8,9,10-hexahydro-5H-pyrazino[1′,2′:4,5]pyrazino[2,3-c]pyridazine-8-carbonyl)piperazin-1-yl)methyl)morpholino)-1-oxoisoindolin-2-yl)piperidine-2,6-dione], the DC50 (SMARCA2-HiBiT) was under 10 nM, the Dmax (SMARCA2-HiBiT) was 50 to 75% and the DC50 (SMARCA4-HiBiT) was 10 to 100 nM. For the same molecule, the Dmax (SMARCA4-HiBiT) was 50 to 75%.

Molecule `O=C1CCC(N2C(=O)c3ccc(N4CCC(CN5CCC(CN6CCN7c8cc(-c9ccccc9O)nnc8NC[C@H]7C6)CC5)CC4)cc3C2=O)C(=O)N1COC(=O)C1(O)CC1` (stereo partly drawn) [Example 130, (3-(5-(4-((4-(((S)-2-(2-hydroxyphenyl)-5,6,6a,7,9,10-hexahydro-8H-pyrazino[1′,2′:4,5]pyrazino[2,3-c]pyridazin-8-yl)methyl)piperidin-1-yl)methyl)piperidin-1-yl)-1,3-dioxoisoindolin-2-yl)-2,6-dioxopiperidin-1-yl)methyl-1-hydroxycyclopropane-1-carboxylate] has a DC50 (SMARCA2-HiBiT) of under 10 nM, a Dmax (SMARCA2-HiBiT) of over 85% and a DC50 (SMARCA4-HiBiT) of under 10 nM. For the same molecule, the Dmax (SMARCA4-HiBiT) was over 85%.
